This note sets out measurements from patent publication US20150119245A1, “Method for Producing Shelf Stable Hypochlorous Acid Solutions” (priority 2013, published 2015).

A short description of data set [1]: Window cleaner streak test, sprayed on glass and dried without wiping. The conditions noted are these: test solution as used in streak test.
Data set [2] is described as follows: Available chlorine present as hypochlorous acid as a function of pH (FIG. 2). Type of data set: physicochemical. From the text: The concentration of hypochlorous acid solutions (HOCl) are usually reported as free available chlorine (FAC) in parts per million (ppm). Hypochlorous acid (HOCl) is in equilibrium with hypochlorite ion (^−OCl) and Cl2 and the extent of the equilibrium is controlled by the pH of the solution, as shown in FIG. 2. Therefore, both FAC and pH need to be known to understand the amount of chlorine present as hypochlorous acid.
Thus at pH 5, a 100 ppm FAC solution will have 100 ppm chlorine present as HOCl.

In data set [1], `[Na+].[OH-]` [NaOH, sodium hydroxide] returned a pH of 12.2.
Take `OCl` [hypochlorous acid]: the “FAC present as hypochlorous acid” value in data set [2] (pH 7.5) was 50%. Also, the “available chlorine present as hypochlorous acid” value in data set [2] (pH of 3) is on record as “about 90%”. Moreover, the “available chlorine present as HOCl” value in data set [2] (pH range of 4 to 5.6) is reported as “approximately 100%”.
